Values joined by “and” are separate entries in the source; they are usually repeats but may differ in a detail not shown here. Identical values can stand only once.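 Cultured in 96-well plates, cells were exposed to test compound for 48 hours across five concentrations. GI50 = concentration required for 50% inhibition of growth. TGI is the concentration that stops growth completely.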
Legend:
Assay in all cases: DTP human tumour cell line panel, 48 h
[1] = system: MOLT-4 leukemia
[2] = system: EKVX NSCLC
[3] = system: DU-145 prostate
[4] = system: NCI-H226 lung
[5] = system: RXF 393 renal
[6] = system: SK-MEL-28 melanoma
[7] = system: IGROV1 ovarian
[8] = system: M14 melanoma
[9] = system: NCI-H522 lung
[10] = system: OVCAR-8 ovarian

Structure (SMILES)	GI50 [1] [µM]	TGI [1] [µM]	GI50 [2] [µM]	TGI [2]	GI50 [3] [µM]	TGI [3]	GI50 [4] [µM]	TGI [4]	GI50 [5] [µM]	TGI [5]	GI50 [6] [µM]	TGI [6]	GI50 [7] [µM]	TGI [7]	GI50 [8] [µM]	TGI [8]	GI50 [9] [µM]	TGI [9]	GI50 [10] [µM]	TGI [10]
CC(C)(C)OC(=O)NCCCCCCCCn1c2c(c3ccccc3c1=O)C(=O)c1ccccc1-2	> 50	> 50	43.5	> 50 µM	> 50	> 50 µM	22.3	> 50 µM	8.49	24.5 µM	> 50	> 50 µM	14.3	> 50 µM	> 50	> 50 µM	13.5	> 43.6 µM	33.9	> 50 µM
Nc1ccc(C#Cc2cncnc2Nc2ccc(OCc3cccc(F)c3)c(Cl)c2)cc1	19.5	> 25	3.07	> 25 µM	> 18	> 25 µM	10.6	> 25 µM	5	> 25 µM	> 19	> 25 µM	4.93	> 25 µM	> 23.6	> 25 µM	4.94	> 23.2 µM	11.9	> 25 µM
CCc1cccc(CC)c1NC(=S)NC(=O)c1ccc(Br)cc1	–	53.9	–	> 100 µM	–	> 100 µM	–	> 95.5 µM	–	> 78 µM	–	> 100 µM	–	> 100 µM	–	> 81.2 µM	–	51.3 µM	–	> 100 µM
C#CCN1CCN(C(=S)N/N=C(\C)c2ccccn2)CC1	0.136	2.28	0.471	3.52 µM and 6.91 µM	1.19	4.74 µM and 6.36 µM	–	4.66 µM	3.95	5.46 µM and 3.48 µM	2.09	8.06 µM and 7.04 µM	0.00303	3.3 µM	0.0781	6.03 µM and 3.32 µM	< 0.0292	6.52 µM and 2.27 µM	0.0131	3.5 µM and 3.46 µM
C=C(CN1CCN(c2cccc(C(F)(F)F)c2)CC1)c1ccc(C(=O)Nc2ccccc2N)cc1	0.13	1.29	2.92	19.4 µM	1.36	7.23 µM	1.89	20.1 µM	1.62	–	3.4	> 27.2 µM	14.2	> 50 µM	1.05	9.89 µM	6.14	> 16.1 µM	1.4	17.2 µM
Cc1cc(O)c2c(c1)C(=O)c1cc(O)cc(O)c1C2=O	–	> 100	24.3	> 100 µM	46.2	> 100 µM	–	> 70.9 µM	–	> 100 µM	–	> 82.9 µM	65.2	> 100 µM	–	60.9 µM	–	> 66.3 µM	34.3	> 100 µM
O=C(O)CCC1COc2ccccc2O1 (stereo not given)	–	> 10	–	> 10 µM	–	> 10 µM	–	> 10 µM	–	> 10 µM	–	> 10 µM	–	> 10 µM	–	> 10 µM	–	> 10 µM	–	> 10 µM
Nc1nc2c(c3ncccc13)C(c1cccc(Cl)c1)Cc1ncccc1-2 (stereo not given)	2.43	50.4	4.9	> 100 µM	2.77	24.9 µM	19.6	43.2 µM	0.908	4.9 µM	8.17	28.4 µM	5.36	> 100 µM	1.23	12.7 µM	0.417	2.82 µM	3.95	37.5 µM
O=C1/C(=C/c2ccccc2)SC(=Nc2ccccc2)N1Nc1ccccc1	5.14	> 100	7.28	> 100 µM	32.2	> 100 µM	10.9	30.5 µM	8.44	30 µM	16.2	71 µM	12.7	> 100 µM	12.3	42.8 µM	15.5	84.8 µM	27.3	> 100 µM
C/C=C(\C)C(=O)O[C@@H]1C(O)[C@H]2OC(COC(=O)CCC(=O)CCCCCC[C@H](CCCCC)O[C@@H]3OC(C)[C@H](OC(C)=O)C(O)[C@H]3O2)[C@H]1OC(=O)/C=C/c1ccccc1 (stereo not given in full)	3.28	> 100	< 0.0267	> 87.9 µM	0.0201	> 44.2 µM	0.0643	7.38 µM	< 0.01	4.99 µM	0.021	9.59 µM	< 0.0163	17.9 µM	< 0.01	0.123 µM	0.0265	2.29 µM	< 0.0341	> 51.4 µM
O=C(Nc1cnn2ccc(N3CCC[C@@H]3c3cc(F)ccc3F)nc12)N1CC[C@H](O)C1	> 100	> 100	> 100	> 100 µM	> 100	> 100 µM	> 100	> 100 µM	> 100	> 100 µM	> 100	> 100 µM	> 100	> 100 µM	> 100	> 100 µM	> 100	> 100 µM	> 100	> 100 µM
CN1CCN(c2ccc(-c3cnc4c(-c5csc6ccccc56)cnn4c3)cc2)CC1	4.1	> 15	9.79	> 15 µM	5.59	> 15 µM	13.5	> 15 µM	3.5	10.7 µM	> 15	> 15 µM	7.55	> 15 µM	5.01	> 15 µM	8.15	> 15 µM	5.7	> 15 µM
COC(=O)[C@]12CC[C@@H](C)[C@H](C)[C@@H]1C1=CC[C@@H]3[C@@]4(C)C(C=O)=C[C@@](C)(COC(C)=O)[C@@H]4[C@H](O)C[C@@]3(C)[C@]1(C)CC2	1.34	5.02	2.76	10.2 µM	1.91	3.93 µM	1.95	4.8 µM	1.56	3.03 µM	2.16	4.92 µM	2.95	9.7 µM	2.15	5.51 µM	3.46	8.83 µM	3.03	10.4 µM
C(CCc1nnc2c(n1)CCCC2)Cc1nnc2c(n1)CCCC2	–	> 100	–	> 100 µM	–	> 100 µM	–	> 100 µM	–	> 100 µM	–	> 100 µM	–	> 100 µM	–	> 100 µM	–	> 100 µM	–	> 100 µM
C=C(CN(CC(=C)C(=O)c1ccccc1)C(C)(C)C)C(=O)c1ccccc1	–	10.2	–	44.4 µM	–	40.3 µM	–	48.4 µM	–	18.7 µM	–	36.8 µM	–	40.3 µM	–	23 µM	–	29.4 µM	–	67.9 µM
Nc1ccn([C@H]2C[C@@H](O)[C@@H](CO)S2)c(=O)n1	> 100	> 100	> 100	> 100 µM	> 100	> 100 µM	> 100	> 100 µM	> 39.1	> 100 µM	> 100	> 100 µM	> 100	> 100 µM	> 100	> 100 µM	–	> 100 µM	11.2	> 100 µM
NCCNCC(O)CO (stereo not given)	–	> 100	–	> 100 µM	–	> 100 µM	–	> 100 µM	–	> 100 µM	–	> 100 µM	–	> 100 µM	–	> 100 µM	–	> 100 µM	–	> 100 µM
CCC(=O)OC1CCn2c1nc1c2C(=O)C(C)=C(N2CC2)C1=O (stereo not given)	1.46	> 83.6	0.305	1.04 µM and 0.504 µM	–	0.0503 µM	0.186	0.441 µM and 0.319 µM	0.0107	0.026 µM and 0.111 µM	0.0368	0.318 µM and 0.215 µM	0.0573	0.237 µM and 1.25 µM	0.0185	0.0436 µM and 0.141 µM	0.0159	0.0404 µM and 0.0899 µM	0.0327	0.338 µM and 0.211 µM
C=C1C(=O)O[C@H]2[C@H]1CC/C(COC(=O)C(=O)c1c[nH]c3ccc(OC)cc13)=C\CC[C@@]1(C)O[C@@H]21	5.31	16	9.85	24.7 µM	7.99	17 µM	5.84	9.99 µM	3.21	6.84 µM	5.05	9.55 µM	3.22	7.64 µM	5.18	10.4 µM	5.34	9.31 µM	6.88	19.4 µM
O=C1c2ccccc2S(=O)(=O)N1CSC(=S)N1CCCC1	8.3	> 100	> 100	> 100 µM	> 100	> 100 µM	> 100	> 100 µM	> 100	> 100 µM	> 100	> 100 µM	19	> 100 µM	> 100	> 100 µM	12.1	> 100 µM	> 100	> 100 µM

Reference: PubChem BioAssay (NCI)
